Data: USRE49022E1, “Insecticidal compounds” (SYNGENTA PARTICIPATIONS AG, priority 2013, dated 2022)

How the values were obtained:
Assay type in all cases: in vivo
[1] = system: Diabrotica balteata (Corn Root Worm); test: Diabrotica balteata, artificial diet MTP test; details: 120 h, 200 ppm (concentration in well 18 ppm), L2 larvae, larval mortality after 5 days
Description: A 24-well microtiter plate (MTP) with artificial diet was treated with test solutions at an application rate of 200 ppm (concentration in well 18 ppm) by pipetting. After drying, the MTP's were infested with L2 larvae (6-10 per well). After an incubation period of 5 days, samples were checked for larval mortality The following compound gave at least 80% control of Diabrotica balteata: 1, 2, 3, 4, 5, 6, 7, 8, 9, 10, 11, 12, 13, 14, 15, 16, 17, 18, 19, 20, 21, 22, 23, 24, 25, 26, 27, 28, 29, 30, 31, 32, 33, 34, 35, 36, 37, 38, 39, 40, 41, 42, 43, 44, 45, 46, 47, 48, 49, 50, 51.

[2] = system: Myzus persicae (Green Peach Aphid); test: Myzus persicae, sunflower leaf disc spray test; details: foliar, 144 h, sprayed sunflower leaf discs, aphid population of mixed ages, mortality after 6 DAT
Description: Sunflower leaf discs were placed on agar in a 24-well microtiter plate and sprayed with test solutions at an application rate of 200 ppm. After drying, the leaf discs were infested with an aphid population of mixed ages. After an incubation period of 6 DAT, samples were checked for mortality.

[3] = system: Myzus persicae (Green Peach Aphid); test: Myzus persicae, sucrose solution / Parafilm test; details: 120 h, mixed with sucrose solution under Parafilm, mortality 5 days after infestation
From the text: Test compounds were applied by pipette into 24 well plates and mixed with Sucrose solution. Application rate: 12.5 ppm. The plates were closed with a stretched Parafilm. A plastic stencil with 24 holes is placed onto the plate and infested pea seedlings were placed directly on the Parafilm. The infested plate is closed with a gel blotting paper and another plastic stencil and then turned upside down. 5 days after infestation the samples were checked on mortality.

[4] = system: Plutella xylostella (Diamond Back Moth); test: Plutella xylostella, artificial diet MTP test; details: 144 h, 200 ppm (concentration in well 18 ppm), L2 larvae, 6 days
Description: 24-well microtiter plate (MTP) with artificial diet was treated with test solutions at an application rate of 200 ppm (concentration in well 18 ppm) by pipetting. After drying, the MTP's were infested with L2 larvae (7-12 per well). After an incubation period of 6 days, samples were checked for larval mortality and growth regulation. The following compound gave at least 80% mortality of Plutella xylostella: 1, 2, 3, 4, 5, 6, 7, 8, 9, 10, 11, 12, 13, 14, 15, 16, 17, 18, 19, 20, 21, 22, 23, 24, 25, 26, 27, 28, 29, 30, 31, 32, 33, 34, 35, 36, 37, 38, 39, 40, 41, 42, 43, 44, 45, 46, 47, 48, 49, 50.

[5] = system: Spodoptera littoralis (Egyptian Cotton Leafworm); test: Spodoptera littoralis, cotton leaf disc spray test; details: foliar, 72 h, sprayed cotton leaf discs, L1 larvae, 3 days after treatment
From the text: Cotton leaf discs were placed on agar in a 24-well microtiter plate and sprayed with test solutions at an application rate of 200 ppm. After drying, the leaf discs were infested with 5 L1 larvae. The samples were checked for mortality 3 days after treatment (DAT).

[6] = system: Spodoptera littoralis (Egyptian Cotton Leaf Worm); test: Spodoptera littoralis, agar / lettuce root uptake test; details: 144 h, mixed with agar, uptake by lettuce roots, mortality 6 days after infestation
From the text: Test compounds were applied by pipette into 24 well plates and mixed with agar. Application rate: 12.5 ppm. Lettuce seeds were placed on the agar and the multi well plate is closed by another plate which contains also agar. After 7 days the roots have absorbed the compound and the lettuce has grown into the lid plate. The lettuce leafs were now cut off into the lid plate. Spodoptera eggs were pipetted through a plastic stencil on a humid gel blotting paper and the plate closed with it. The samples are checked for mortality 6 days after infestation.

[7] = system: Tetranychus urticae (Two-Spotted Spider Mite); test: Tetranychus urticae, bean leaf disc spray test; details: foliar, 192 h, sprayed bean leaf discs, mite populations of mixed ages, 8 days
From the text: Bean leaf discs on agar in 24-well microtiter plates were sprayed with test solutions at an application rate of 200 ppm. After drying, the leaf discs are infested with mite populations of mixed ages. 8 days later, discs were checked for mortality.

[8] = system: Thrips tabaci (Onion Thrips); test: Thrips tabaci, sunflower leaf disc spray test; details: foliar, 168 h, sprayed sunflower leaf discs, mortality after 7 days

O=C(Nc1cccc(C(=O)Nc2c(Br)cc(C(F)(C(F)(F)F)C(F)(F)Cl)cc2OC(F)F)c1F)c1ccc[n+]([O-])c1 (stereo not drawn) [Compound 24]
≥ 80%: pest or weed control at 200 ppm [1] | pest or weed control at 200 ppm [2] | pest or weed control at 12.5 ppm [3] | mortality at 200 ppm [4] | mortality at 200 ppm [5] | pest or weed control at 12.5 ppm [6] | mortality at 200 ppm [7] | pest or weed control at 200 ppm [8]

CCc1cc(C(F)(C(F)(F)F)C(F)(F)Cl)cc(Br)c1NC(=O)c1cccc(NC(=O)c2cccnc2)c1OC (stereo not drawn) [Compound 21]
≥ 80%: pest or weed control at 200 ppm [1] | pest or weed control at 200 ppm [2] | pest or weed control at 12.5 ppm [3] | mortality at 200 ppm [4] | mortality at 200 ppm [5] | pest or weed control at 12.5 ppm [6] | mortality at 200 ppm [7] | pest or weed control at 200 ppm [8]

COc1c(NC(=O)c2cc[n+]([O-])cc2)cccc1C(=O)Nc1c(Br)cc(C(F)(C(F)(F)F)C(F)(F)Cl)cc1OC(F)F (stereo not drawn) [Compound 25]
≥ 80%: pest or weed control at 200 ppm [1] | pest or weed control at 200 ppm [2] | pest or weed control at 12.5 ppm [3] | mortality at 200 ppm [4] | mortality at 200 ppm [5] | pest or weed control at 12.5 ppm [6] | mortality at 200 ppm [7] | pest or weed control at 200 ppm [8]

O=C(Nc1cccc(C(=O)Nc2c(Br)cc(C(F)(C(F)(F)F)C(F)(F)Br)cc2OC(F)F)c1F)c1ccncc1 (stereo not drawn) [Compound 4]
≥ 80%: pest or weed control at 200 ppm [1] | pest or weed control at 200 ppm [2] | pest or weed control at 12.5 ppm [3] | mortality at 200 ppm [4] | mortality at 200 ppm [5] | pest or weed control at 12.5 ppm [6] | mortality at 200 ppm [7] | pest or weed control at 200 ppm [8]

COc1c(NC(=O)c2cccnc2)cccc1C(=O)Nc1c(Br)cc(C(F)(C(F)(F)F)C(F)(F)Cl)cc1OC(F)F (stereo not drawn) [Compound 15]
≥ 80%: pest or weed control at 200 ppm [1] | pest or weed control at 200 ppm [2] | pest or weed control at 12.5 ppm [3] | mortality at 200 ppm [4] | mortality at 200 ppm [5] | pest or weed control at 12.5 ppm [6] | mortality at 200 ppm [7] | pest or weed control at 200 ppm [8]

CCN(C(=O)c1ccncc1)c1cccc(C(=O)Nc2c(Br)cc(C(F)(C(F)(F)F)C(F)(F)Br)cc2OC(F)F)c1F (stereo not drawn) [Compound 7]
≥ 80%: pest or weed control at 200 ppm [1] | pest or weed control at 200 ppm [2] | pest or weed control at 12.5 ppm [3] | mortality at 200 ppm [4] | mortality at 200 ppm [5] | pest or weed control at 12.5 ppm [6] | mortality at 200 ppm [7] | pest or weed control at 200 ppm [8]

CCN(C(=O)c1ccncc1)c1cccc(C(=O)Nc2c(Br)cc(C(F)(C(F)(F)F)C(F)(F)Cl)cc2OC(F)F)c1OC (stereo not drawn) [Compound 36, N-[3-[[2-bromo-4-[1-[chloro(difluoro)methyl]-1,2,2,2-tetrafluoro-ethyl]-6-(difluoromethoxy)phenyl]carbamoyl]-2-methoxy-phenyl]-N-ethyl-pyridine-4-carboxamide]
≥ 80%: pest or weed control at 200 ppm [1] | pest or weed control at 200 ppm [2] | pest or weed control at 12.5 ppm [3] | mortality at 200 ppm [4] | mortality at 200 ppm [5] | pest or weed control at 12.5 ppm [6] | mortality at 200 ppm [7] | pest or weed control at 200 ppm [8]

CCN(C(=O)c1ccncc1)c1cccc(C(=O)Nc2c(Br)cc(C(F)(C(F)(F)F)C(F)(F)Cl)cc2OC(F)F)c1F (stereo not drawn) [Compound 35]
≥ 80%: pest or weed control at 200 ppm [1] | pest or weed control at 200 ppm [2] | pest or weed control at 12.5 ppm [3] | mortality at 200 ppm [4] | mortality at 200 ppm [5] | pest or weed control at 12.5 ppm [6] | mortality at 200 ppm [7] | pest or weed control at 200 ppm [8]

CCN(C(=O)c1cc[n+]([O-])cc1)c1cccc(C(=O)Nc2c(Br)cc(C(F)(C(F)(F)F)C(F)(F)Cl)cc2OC(F)F)c1OC (stereo not drawn) [Compound 44, N-[3-[[2-bromo-4-[1-[chloro(difluoro)methyl]-1,2,2,2-tetrafluoro-ethyl]-6-(difluoromethoxy)phenyl]carbamoyl]-2-methoxy-phenyl]-N-ethyl-1-oxido-pyridin-1-ium-4-carboxamide]
≥ 80%: pest or weed control at 200 ppm [1] | pest or weed control at 200 ppm [2] | pest or weed control at 12.5 ppm [3] | mortality at 200 ppm [4] | mortality at 200 ppm [5] | pest or weed control at 12.5 ppm [6] | mortality at 200 ppm [7] | pest or weed control at 200 ppm [8]

CCN(C(=O)c1ccncc1)c1cccc(C(=O)Nc2c(Cl)cc(C(F)(C(F)(F)F)C(F)(F)Br)cc2Br)c1OC (stereo not drawn) [Compound 2, N-[3-[[2-bromo-4-[1-[bromo(difluoro)methyl]-1,2,2,2-tetrafluoro-ethyl]-6-chloro-phenyl]carbamoyl]-2-methoxy-phenyl]-N-ethyl-pyridine-4-carboxamide]
≥ 80%: pest or weed control at 200 ppm [1] | pest or weed control at 200 ppm [2] | pest or weed control at 12.5 ppm [3] | mortality at 200 ppm [4] | mortality at 200 ppm [5] | pest or weed control at 12.5 ppm [6] | mortality at 200 ppm [7] | pest or weed control at 200 ppm [8]

N#Cc1ccc(C(=O)Nc2cccc(C(=O)Nc3c(Br)cc(C(F)(C(F)(F)F)C(F)(F)Br)cc3OC(F)F)c2F)cc1 (stereo not drawn) [Compound 5]
≥ 80%: pest or weed control at 200 ppm [1] | pest or weed control at 200 ppm [2] | pest or weed control at 12.5 ppm [3] | mortality at 200 ppm [4] | mortality at 200 ppm [5] | pest or weed control at 12.5 ppm [6] | mortality at 200 ppm [7] | pest or weed control at 200 ppm [8]

CCN(C(=O)c1ccc(C#N)cc1)c1cccc(C(=O)Nc2c(Br)cc(C(F)(C(F)(F)F)C(F)(F)Cl)cc2OC(F)F)c1F (stereo not drawn) [Compound 31]
≥ 80%: pest or weed control at 200 ppm [1] | pest or weed control at 200 ppm [2] | pest or weed control at 12.5 ppm [3] | mortality at 200 ppm [4] | mortality at 200 ppm [5] | pest or weed control at 12.5 ppm [6] | mortality at 200 ppm [7] | pest or weed control at 200 ppm [8]
